The results in this text go back to patent publication US9499550B2 (BRISTOL-MYERS SQUIBB COMPANY, priority 2012, dated 2016).

Where two headings read alike, the source gives them in different places. Bounds are passed on as bounds.

Assay [1] deals with HCV genotype 1a (H77 strain) replicon in HUH-7 cells. In words: HCV replicon luciferase reporter assay, genotype 1a. It counts as cell-based. The following applies: Hepatitis C virus, Huh-7, 72 h, HCV genotype 1a replicon luciferase, 3 days incubation. In short, it runs like this: (§1)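 Replicon inhibition for both genotypes was measured as Renilla luciferase signal (EnduRen, 7.5 μM final, 2 h) after 3-day, 37° C exposure of replicon-bearing HUH-7 cells in 4% FCS DMEM, 0.5% DMSO. The 1b construct carries S1179I; the 1a H77 construct carries P1496L and S2204I. Twenty-point, 3-fold dilutions were fitted four-parametrically for EC50, and CC50 was taken from multiplexed Cell Titer-Blue.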

The test system of assay [2] is HCV genotype 1b (Con1) replicon in HUH-7 cells. Briefly: HCV replicon luciferase reporter assay, genotype 1b. To be noted: Hepatitis C virus, Huh-7, 72 h, HCV genotype 1b replicon luciferase, 3 days incubation. It counts as cell-based. The procedure, abridged:
as §1
Background: Replicon systems follow genome replication, usually without infectious particles.

The EC50 is the concentration giving half of the maximal effect. With `CCOc1cc2ccnc(O[C@@H]3C[C@H]4C(=O)N[C@]5(C(=O)NS(=O)(=O)C6(C)CC6)C[C@H]5/C=C\CC[C@@H](C)C[C@@H](CC)[C@H](NC(=O)OC(C)(C)C(F)F)C(=O)N4C3)c2cc1F` [Compound 5525, 1,1-difluoro-2-methylpropan-2-yl((2R,6S,7R,9R,13aS,14aR,16aS,Z)-2-((6-ethoxy-7-fluoroisoquinolin-1-yl)oxy)-7-ethyl-9-methyl-14a-(((1-methylcyclopropyl)sulfonyl)carbamoyl)-5,16-dioxo-1,2,3,5,6,7,8,9,10,11,13a,14,14a,15,16,16a-hexadecahydrocyclopropa[e]pyrrolo[1,2-a][1,4]diazacyclopentadecin-6-yl)carbamate], the half-maximal effective concentration (EC50) in assay [1] (read-out: LE_1a (EC50, range)) fell in the range of 1.01 to 5 nM; in assay [2] (read-out: LE_1b (EC50, range)), 0.51 to 1 nM.

For `CC[C@@H]1C[C@H](C)CC/C=C\[C@@H]2C[C@@]2(C(=O)NS(=O)(=O)C2(C)CC2)NC(=O)[C@@H]2C[C@@H](Oc3nccc4cc(OC)c(F)cc34)CN2C(=O)[C@H]1NC(=O)OC(C)(C)C(F)F` [Compound 5527, 1,1-difluoro-2-methylpropan-2-yl((2R,6S,7R,9R,13aS,14aR,16aS,Z)-7-ethyl-2-((7-fluoro-6-methoxyisoquinolin-1-yl)oxy)-9-methyl-14a-(((1-methylcyclopropyl)sulfonyl)carbamoyl)-5,16-dioxo-1,2,3,5,6,7,8,9,10,11,13a,14,14a,15,16,16a-hexadecahydrocyclopropa[e]pyrrolo[1,2-a][1,4]diazacyclopentadecin-6-yl)carbamate], the EC50 in assay [1] (read-out: LE_1a (EC50, range)) was 1.01 to 5 nM; in assay [2] (read-out: LE_1b (EC50, range)), 0.51 to 1 nM.

On to `CC[C@@H]1C[C@H](C)CC/C=C\[C@@H]2C[C@@]2(C(=O)NS(=O)(=O)C2(C)CC2)NC(=O)[C@@H]2C[C@@H](Oc3ncc(OC)c4ccc(F)cc34)CN2C(=O)[C@H]1NC(=O)OC(C)(C)C(F)F` [Compound 5529, 1,1-difluoro-2-methylpropan-2-yl((2R,6S,7R,9R,13aS,14aR,16aS,Z)-7-ethyl-2-((7-fluoro-4-methoxyisoquinolin-1-yl)oxy)-9-methyl-14a-(((1-methylcyclopropyl)sulfonyl)carbamoyl)-5,16-dioxo-1,2,3,5,6,7,8,9,10,11,13a,14,14a,15,16,16a-hexadecahydrocyclopropa[e]pyrrolo[1,2-a][1,4]diazacyclopentadecin-6-yl)carbamate], for which the concentration giving a half-maximal response (EC50) in assay [1] (read-out: LE_1a (EC50, range)) was 1.01 to 5 nM; in assay [2] (read-out: LE_1b (EC50, range)), 0.1 to 0.5 nM.

For `CCOc1cnc(O[C@@H]2C[C@H]3C(=O)N[C@]4(C(=O)NS(=O)(=O)C5(C)CC5)C[C@H]4/C=C\CC[C@@H](C)C[C@@H](CC)[C@H](NC(=O)OC(C)(C)C(F)F)C(=O)N3C2)c2ccccc12` [Compound 5531, 1,1-difluoro-2-methylpropan-2-yl((2R,6S,7R,9R,13aS,14aR,16aS,Z)-2-((4-ethoxyisoquinolin-1-yl)oxy)-7-ethyl-9-methyl-14a-(((1-methylcyclopropyl)sulfonyl)carbamoyl)-5,16-dioxo-1,2,3,5,6,7,8,9,10,11,13a,14,14a,15,16,16a-hexadecahydrocyclopropa[e]pyrrolo[1,2-a][1,4]diazacyclopentadecin-6-yl)carbamate], the 50% effective concentration (EC50) fell in the range of 1.01 to 5 nM in assay [1] (read-out: LE_1a (EC50, range)) and 0.51 to 1 nM in assay [2] (read-out: LE_1b (EC50, range)).

For the molecule `CC[C@@H]1C[C@H](C)CC/C=C\[C@@H]2C[C@@]2(C(=O)NS(=O)(=O)C2(C)CC2)NC(=O)[C@@H]2C[C@@H](Oc3ncc(OC)c4ccccc34)CN2C(=O)[C@H]1NC(=O)OC(C)(C)C(F)F` [Compound 5533, 1,1-difluoro-2-methylpropan-2-yl((2R,6S,7R,9R,13aS,14aR,16aS,Z)-7-ethyl-2-((4-methoxyisoquinolin-1-yl)oxy)-9-methyl-14a-(((1-methylcyclopropyl)sulfonyl)carbamoyl)-5,16-dioxo-1,2,3,5,6,7,8,9,10,11,13a,14,14a,15,16,16a-hexadecahydrocyclopropa[e]pyrrolo[1,2-a][1,4]diazacyclopentadecin-6-yl)carbamate], the EC50 in assay [1] (read-out: LE_1a (EC50, range)) is 1.01 to 5 nM; in assay [2] (read-out: LE_1b (EC50, range)), 0.1 to 0.5 nM.

Consider `CC[C@@H]1C[C@H](C)CC/C=C\[C@@H]2C[C@@]2(C(=O)NS(=O)(=O)C2(C)CC2)NC(=O)[C@@H]2C[C@@H](Oc3nccc4c5c(ccc34)OCCO5)CN2C(=O)[C@H]1NC(=O)OC(C)(C)C(F)F` [Compound 5535, 1,1-difluoro-2-methylpropan-2-yl((2R,6S,7R,9R,13aS,14aR,16aS,Z)-2-((2,3-dihydro-[1,4]dioxino[2,3-f]isoquinolin-7-yl)oxy)-7-ethyl-9-methyl-14a-(((1-methylcyclopropyl)sulfonyl)carbamoyl)-5,16-dioxo-1,2,3,5,6,7,8,9,10,11,13a,14,14a,15,16,16a-hexadecahydrocyclopropa[e]pyrrolo[1,2-a][1,4]diazacyclopentadecin-6-yl)carbamate], for which the EC50 in assay [1] (read-out: LE_1a (EC50, range)) lay within 5.01 to 35 nM; in assay [2] (read-out: LE_1b (EC50, range)), 1.01 to 5 nM.

Turning to `CC[C@@H]1C[C@H](C)CC/C=C\[C@@H]2C[C@@]2(C(=O)NS(=O)(=O)C2CC2)NC(=O)[C@@H]2C[C@@H](Oc3ncc(OC)c4ccccc34)CN2C(=O)[C@H]1NC(=O)OC(C)(C)C(F)F` [Compound 5537, 1,1-difluoro-2-methylpropan-2-yl((2R,6S,7R,9R,13aS,14aR,16aS,Z)-14a-((cyclopropylsulfonyl)carbamoyl)-7-ethyl-2-((4-methoxyisoquinolin-1-yl)oxy)-9-methyl-5,16-dioxo-1,2,3,5,6,7,8,9,10,11,13a,14,14a,15,16,16a-hexadecahydrocyclopropa[e]pyrrolo[1,2-a][1,4]diazacyclopentadecin-6-yl)carbamate], the 50% effective concentration (EC50) is 0.51 to 1 nM in assay [1] (read-out: LE_1a (EC50, range)) and 0.1 to 0.5 nM in assay [2] (read-out: LE_1b (EC50, range)).

Regarding `CC[C@@H]1C[C@H](C)CC/C=C\[C@@H]2C[C@@]2(C(=O)NS(=O)(=O)C2CC2)NC(=O)[C@@H]2C[C@@H](Oc3nc(OC)cc4ccccc34)CN2C(=O)[C@H]1NC(=O)OC(C)(C)C` [Compound 6001, tert-butyl ((2R,6S,7R,9R,13aS,14aR,16aS,Z)-14a-((cyclopropylsulfonyl)carbamoyl)-7-ethyl-2-((3-methoxyisoquinolin-1-yl)oxy)-9-methyl-5,16-dioxo-1,2,3,5,6,7,8,9,10,11,13a,14,14a,15,16,16a-hexadecahydrocyclopropa[e]pyrrolo[1,2-a][1,4]diazacyclopentadecin-6-yl)carbamate], the EC50 is < 5.46 nM in assay [1] (read-out: LE_1a (EC50, range)) and < 5.46 nM in assay [2] (read-out: LE_1b (EC50, range)).

Consider `CC[C@@H]1C[C@@H](C)CC/C=C\[C@@H]2C[C@@]2(C(=O)NS(=O)(=O)C2CC2)NC(=O)[C@@H]2C[C@@H](Oc3nc(OC)cc4ccccc34)CN2C(=O)[C@H]1NC(=O)OC(C)(C)C(F)(F)F` [Compound 6002, 1,1,1-trifluoro-2-methylpropan-2-yl((2R,6S,7R,9S,13aS,14aR,16aS,Z)-14a-((cyclopropylsulfonyl)carbamoyl)-7-ethyl-2-((3-methoxyisoquinolin-1-yl)oxy)-9-methyl-5,16-dioxo-1,2,3,5,6,7,8,9,10,11,13a,14,14a,15,16,16a-hexadecahydrocyclopropa[e]pyrrolo[1,2-a][1,4]diazacyclopentadecin-6-yl)carbamate], for which the EC50 in assay [1] (read-out: LE_1a (EC50, range)) is 4.82 to 103 nM; in assay [2] (read-out: LE_1b (EC50, range)) it was < 5.46 nM.

As for `CC[C@@H]1C[C@H](C)CC/C=C\[C@@H]2C[C@@]2(C(=O)NS(=O)(=O)C2CC2)NC(=O)[C@@H]2C[C@@H](Oc3nc(OC)cc4ccccc34)CN2C(=O)[C@H]1NC(=O)OC(C)(C)C(F)(F)F` [Compound 6003, 1,1,1-trifluoro-2-methylpropan-2-yl((2R,6S,7R,9R,13aS,14aR,16aS,Z)-14a-((cyclopropylsulfonyl)carbamoyl)-7-ethyl-2-((3-methoxyisoquinolin-1-yl)oxy)-9-methyl-5,16-dioxo-1,2,3,5,6,7,8,9,10,11,13a,14,14a,15,16,16a-hexadecahydrocyclopropa[e]pyrrolo[1,2-a][1,4]diazacyclopentadecin-6-yl)carbamate], the EC50 in assay [1] (read-out: LE_1a (EC50)) is 1.33 nM; in assay [1] (read-out: LE_1a (EC50, range)) it was < 5.46 nM; in assay [2] (read-out: LE_1b (EC50)), 0.22 nM; in assay [2] (read-out: LE_1b (EC50, range)), < 5.46 nM.

Turning to `CC[C@@H]1C[C@@H](C)CC/C=C\[C@@H]2C[C@@]2(C(=O)NS(=O)(=O)C2(C)CC2)NC(=O)[C@@H]2C[C@@H](Oc3nc(OC)cc4ccccc34)CN2C(=O)[C@H]1NC(=O)OC(C)(C)C` [Compound 6004, tert-butyl ((2R,6S,7R,9S,13aS,14aR,16aS,Z)-7-ethyl-2-((3-methoxyisoquinolin-1-yl)oxy)-9-methyl-14a-(((1-methylcyclopropyl)sulfonyl)carbamoyl)-5,16-dioxo-1,2,3,5,6,7,8,9,10,11,13a,14,14a,15,16,16a-hexadecahydrocyclopropa[e]pyrrolo[1,2-a][1,4]diazacyclopentadecin-6-yl)carbamate], the EC50 was 4.82 to 103 nM in assay [1] (read-out: LE_1a (EC50, range)) and < 5.46 nM in assay [2] (read-out: LE_1b (EC50, range)).

Consider `CC[C@@H]1C[C@H](C)CC/C=C\[C@@H]2C[C@@]2(C(=O)NS(=O)(=O)C2(C)CC2)NC(=O)[C@@H]2C[C@@H](Oc3nc(OC)cc4ccccc34)CN2C(=O)[C@H]1NC(=O)OC(C)(C)C` [Compound 6005, tert-butyl ((2R,6S,7R,9R,13aS,14aR,16aS,Z)-7-ethyl-2-((3-methoxyisoquinolin-1-yl)oxy)-9-methyl-14a-(((1-methylcyclopropyl)sulfonyl)carbamoyl)-5,16-dioxo-1,2,3,5,6,7,8,9,10,11,13a,14,14a,15,16,16a-hexadecahydrocyclopropa[e]pyrrolo[1,2-a][1,4]diazacyclopentadecin-6-yl)carbamate], for which the EC50 in assay [1] (read-out: LE_1a (EC50)) was 1.29 nM; in assay [1] (read-out: LE_1a (EC50, range)) it was < 5.46 nM; in assay [2] (read-out: LE_1b (EC50)), 0.28 nM; in assay [2] (read-out: LE_1b (EC50, range)) it was < 5.46 nM.
